Converted amounts (≈) assume the structure as drawn.
Columns and labels:
[1] = tested on: ESBL negative E. coli (ATCC 35218); assay: AST on the MDT system (broth microdilution) at various inoculum concentrations; assay type: cell-based
Protocol: (§1) The MIC of cefepime against E. coli was determined according to the standard CLSI guideline except for the concentration of bacteria. 16 h after culture at 37° C., broth microdilution wells were examined.
(§2) The first reason is that large inoculum amounts of antibiotic degrading proteins derived from bacteria may destroy antibiotics and result in an increase in MIC value. The other reason is that larger inoculum amounts of […] bacteria may decrease the number of antibiotic molecules relative to single cells of bacteria and result in an increase in MIC. To verify the reasons for the absence of inoculum effect in the DAC system, ESBL negative E. coli (ATCC 35218), ESBL positive E. coli (ATCC 25922), and clinically obtained E. coli strains, which are well known as a bacterial strain secreting antibiotic-degrading proteins, were tested at inoculum concentrations of 5×10^7, 5×10^6, and 5×10^5 CFU/ml. These concentrations indicate the concentrations of the bacteria in agarose for the DAC system and in liquid for the MDT system.

[2] = tested on: ESBL positive E. coli (ATCC 25922); assay: as above; assay type: cell-based
Protocol: as §1, §2

[3] = tested on: clinically obtained E. coli strain #5; assay: as above; assay type: cell-based; settings: #5 strain
Protocol: as §1, §2

[4] = tested on: ESBL positive E. coli strains; assay: Residual efficacy of antibiotic solution after overnight culture, re-tested by MDT; assay type: cell-based; settings: Escherichia coli
Protocol: At each time point, the culture media were filtered to remove the cells and then added to different DST sets to measure the residual efficacies of the antibiotics. Both broth […] and DAC protocol were performed in the same manner as described above.
The present inventors hypothesized that the reason why the absence of inoculum effect in the DAC system may be because proteins released from bacteria are trapped by agarose and cannot degrade the antibiotic, unlike under broth culture conditions. […] These concentrations indicate the concentrations of the bacteria in […] for the DAC system and in liquid for the MDT system.
Thus, the final concentrations of the bacteria in the DAC and […] systems were the same. Cefepime was used in these tests. After culture overnight, the antibiotic solutions in the wells of the DAC and MDT systems was extracted and filtered to obtain the pure antibiotic. MDT using ESBL positive E. coli strains was conducted using the antibiotic.

[5] = tested on: ESBL negative E. coli (ATCC 35218); assay: AST on the DAC system at various inoculum concentrations; assay type: cell-based; settings: unit inferred
Excerpt: as §2

[6] = tested on: ESBL positive E. coli (ATCC 25922); assay: as above; assay type: cell-based; settings: unit inferred
Excerpt: as §2

[7] = tested on: clinically obtained E. coli strain #5; assay: as above; assay type: cell-based; settings: #5 strain, unit inferred
Excerpt: as §2

MDR-TB clinical strain = assay: DST of MTB using the DAC system (MIC from time-lapse images); assay type: cell-based, Mycobacterium tuberculosis
XDR-TB clinical strain = assay: as above; assay type: cell-based, Mycobacterium tuberculosis
M. tuberculosis H37Rv = assay: as above; assay type: cell-based, Mycobacterium tuberculosis
standard strain H37Rv = assay: Inoculum effect test, DST on the DAC system; assay type: cell-based, Mycobacterium tuberculosis
clinical strain MSH = assay: Inoculum effect on clinical strains on the DAC system; assay type: cell-based, Mycobacterium tuberculosis
Protocol: (§3) Mycobacterium tuberculosis identified by ZN staining and grown from an L-J slope or MGIT tube and was subjected to DST. For the preparation of inoculation from the LJ culture, colonies up to 14 days were extracted from the grown culture. The colonies were shaken with glass beads to crush large lumps. To obtain a high density (˜5×10^9 CFU/ml), the suspension was centrifuged at 3000 g for 10 min and pellets were resuspended in sterile PBS. Subsequently, the suspension was added to liquid agarose, inoculated in a bacteria-agarose mixture within the range of 10^1 to 5×10^8 CFU/ml, and loaded in the main channel After solidification, 7H9 broth containing each antibiotic was applied to the chamber. All bacterial cells were imaged with an inverted optical microscope (IS71, Olympus).
(§4) Clinical strains express various phenotypes, particularly, in drug susceptibility. […] Rifampicin, isoniazid, streptomycin, and ethambutol were used as test drugs. For the 131 strains, the highest concentration was 1.3×10^9.

clinical strain 131 = assay: as above; assay type: cell-based, Mycobacterium tuberculosis
Protocol: as §3, §4

clinical strain 1088 = assay: as above; assay type: cell-based, Mycobacterium tuberculosis
Protocol: as §3, §4

clinical strain CMS = assay: as above; assay type: cell-based, Mycobacterium tuberculosis
Protocol: as §3, §4

clinical strain KHS = assay: as above; assay type: cell-based, Mycobacterium tuberculosis
Protocol: as §3, §4

clinical strain CYD = assay: as above; assay type: cell-based, Mycobacterium tuberculosis
Protocol: as §3, §4

[8] = inoculum 5*10^5 CFU/ml in liquid, unit not given
[9] = inoculum 5*10^6 CFU/ml in liquid, unit inferred
[10] = inoculum 5*10^7 CFU/ml in liquid, unit inferred
[11] = inoculum 5*10^5 CFU/ml in agarose
[12] = inoculum 5*10^6 CFU/ml in agarose
[13] = inoculum 5*10^7 CFU/ml in agarose
[14] = Mycobacterium tuberculosis, 120 h
[15] = inoculum 10^3/mL, DAC, unit inferred
[16] = inoculum 10^4/mL, DAC, unit inferred
[17] = inoculum 10^5/mL, DAC, unit inferred
[18] = inoculum 10^6/mL, MAC2, unit inferred
[19] = inoculum 10^7/mL, MAC2, unit inferred

Structure (SMILES): CO/N=C(\C(=O)N[C@@H]1C(=O)N2C(C(=O)[O-])=C(C[N+]3(C)CCCC3)CS[C@H]12)c1csc(N)n1 [Cefepime]
- MIC (AST result, MDT) [1, 8]: All growth
- MIC (AST result, MDT) [1, 9]: 0.03 µg/mL (≈ 0.0624 µM)
- MIC (AST result, MDT) [1, 10]: 0.03 µg/mL (≈ 0.0624 µM)
- MIC (AST result, MDT) [2, 8]: All growth
- MIC (AST result, MDT) [2, 9]: 4 µg/mL (≈ 8.32 µM)
- MIC (AST result, MDT) [2, 10]: 0.03 µg/mL (≈ 0.0624 µM)
- MIC (AST result, MDT) [3, 8]: All growth
- MIC (AST result, MDT) [3, 9]: 64 µg/mL (≈ 133 µM)
- MIC (AST result, MDT) [3, 10]: 16 µg/mL (≈ 33.3 µM)
- MIC ([4]; antibiotic solution recovered from DAC wells after overnight culture with 5*10^5 CFU/ml ESBL positive E. coli): 0.06 µg/mL (≈ 0.125 µM)
- MIC ([4]; antibiotic solution recovered from DAC wells after overnight culture with 5*10^6 CFU/ml ESBL positive E. coli): 0.06 µg/mL (≈ 0.125 µM)
- MIC ([4]; antibiotic solution recovered from DAC wells after overnight culture with 5*10^7 CFU/ml ESBL positive E. coli): 0.06 µg/mL (≈ 0.125 µM)
- MIC ([4]; antibiotic solution recovered from MDT wells after overnight culture with 5*10^5 CFU/ml ESBL positive E. coli): 0.03 µg/mL (≈ 0.0624 µM)
- MIC ([4]; antibiotic solution recovered from MDT wells after overnight culture with 5*10^6 CFU/ml ESBL positive E. coli): 0.125 µg/mL (≈ 0.26 µM)
- MIC ([4]; antibiotic solution recovered from MDT wells after overnight culture with 5*10^7 CFU/ml ESBL positive E. coli): 0.25 µg/mL (≈ 0.52 µM)
- MIC (AST result, DAC) [5, 11]: 0.06 µg/mL (≈ 0.125 µM)
- MIC (AST result, DAC) [5, 12]: 0.06 µg/mL (≈ 0.125 µM)
- MIC (AST result, DAC) [5, 13]: 0.06 µg/mL (≈ 0.125 µM)
- MIC (AST result, DAC) [6, 11]: 0.03 µg/mL (≈ 0.0624 µM)
- MIC (AST result, DAC) [6, 12]: 0.03 µg/mL (≈ 0.0624 µM)
- MIC (AST result, DAC) [6, 13]: 0.03 µg/mL (≈ 0.0624 µM)
- MIC (AST result, DAC) [7, 11]: < 16 µg/mL
- MIC (AST result, DAC) [7, 12]: < 16 µg/mL
- MIC (AST result, DAC) [7, 13]: < 16 µg/mL

Structure (SMILES): [H]/N=C(/N)N[C@H]1[C@H](O)[C@@H](O)[C@H](O[C@@H]2O[C@@H](C)[C@](O)(C=O)[C@H]2O[C@@H]2O[C@@H](CO)[C@H](O)[C@@H](O)[C@@H]2NC)[C@@H](N/C(N)=N\[H])[C@@H]1O [SM, streptomycin]
- susceptibility determined from the MIC data and the critical concentrations (MDR-TB clinical strain; DAC system, MDR strain): R
- MIC (MDR-TB clinical strain; [14]): > 4 µg/mL
- susceptibility determined from the MIC data and the critical concentrations (XDR-TB clinical strain; DAC system, XDR strain): R
- MIC (XDR-TB clinical strain; [14]): > 4 µg/mL
- susceptibility determined from the MIC data and the critical concentrations (M. tuberculosis H37Rv): R
- MIC (M. tuberculosis H37Rv; Mycobacterium tuberculosis, 120 h, images over 5 days): 2 µg/mL (≈ 3.44 µM)
- susceptibility of the strain (in words) (M. tuberculosis H37Rv; from the MIC data): sensitive
- MIC (DAC) (standard strain H37Rv; [15]): 2 µg/mL (≈ 3.44 µM)
- MIC (DAC) (standard strain H37Rv; [16]): 2 µg/mL (≈ 3.44 µM)
- MIC (DAC) (standard strain H37Rv; [17]): 2 µg/mL (≈ 3.44 µM)
- MIC (DAC) (standard strain H37Rv; [18]): 2 µg/mL (≈ 3.44 µM)
- MIC (DAC) (standard strain H37Rv; [19]): > 2 µg/mL
- MIC (DAC) (clinical strain MSH; [16]): 0.25 µg/mL (≈ 0.43 µM)
- MIC (DAC) (clinical strain MSH; [17]): 0.25 µg/mL (≈ 0.43 µM)
- MIC (DAC) (clinical strain MSH; [18]): 1 µg/mL (≈ 1.72 µM)
- MIC (DAC) (clinical strain MSH; [19]): 0.5 µg/mL (≈ 0.86 µM)
- MIC (DAC) (clinical strain 131; [15]): > 4 µg/mL
- MIC (DAC) (clinical strain 131; [16]): > 4 µg/mL
- MIC (DAC) (clinical strain 131; [17]): > 4 µg/mL
- MIC (DAC) (clinical strain 131; [18]): > 4 µg/mL
- MIC (DAC) (clinical strain 131; [19]): > 4 µg/mL
- MIC (DAC) (clinical strain 1088; [15]): ≥ 4 µg/mL
- MIC (DAC) (clinical strain 1088; [16]): ≥ 4 µg/mL
- MIC (DAC) (clinical strain 1088; [17]): ≥ 4 µg/mL
- MIC (DAC) (clinical strain 1088; [18]): ≥ 4 µg/mL
- MIC (DAC) (clinical strain 1088; [19]): ≥ 4 µg/mL
- MIC (DAC) (clinical strain CMS; [16]): 0.5 µg/mL (≈ 0.86 µM)
- MIC (DAC) (clinical strain CMS; [17]): 0.5 µg/mL (≈ 0.86 µM)
- MIC (DAC) (clinical strain CMS; [18]): 1 µg/mL (≈ 1.72 µM)
- MIC (DAC) (clinical strain CMS; [19]): 1 µg/mL (≈ 1.72 µM)
- MIC (DAC) (clinical strain KHS; [16]): 0.5 µg/mL (≈ 0.86 µM)
- MIC (DAC) (clinical strain KHS; [17]): 0.25 µg/mL (≈ 0.43 µM)
- MIC (DAC) (clinical strain KHS; [18]): 0.5 µg/mL (≈ 0.86 µM)
- MIC (DAC) (clinical strain KHS; [19]): 1 µg/mL (≈ 1.72 µM)
- MIC (DAC) (clinical strain CYD; [16]): 0.5 µg/mL (≈ 0.86 µM)
- MIC (DAC) (clinical strain CYD; [17]): 0.25 µg/mL (≈ 0.43 µM)
- MIC (DAC) (clinical strain CYD; [18]): 0.5 µg/mL (≈ 0.86 µM)
- MIC (DAC) (clinical strain CYD; [19]): 1 µg/mL (≈ 1.72 µM)
